Experimental data published in article PMC6356585 (Viruses, 2018).
Counter-ions that a name gives are not always drawn. Like-named read-outs stand apart in the source and are kept apart here.

What was measured:
C6/36 cells = format: cell-based, Ae. albopictus
ZIKV SPH [1] = test: Autophagy compound library screen, ZIKV SPH titer (TCID50) in C6/36 cells; format: cell-based, Zika virus; settings: 10 µM compound, MOI 0.1, 96 h, TCID50, ± SEM, three independent trials; for activity at 10 µM: Zika virus, C6/36, read-out: ZIKV SPH Relative Titer in C6/36 Cells
ZIKV SPH [2] = test: Autophagy compound library screen, ZIKV SPH titer (TCID50) in Vero cells; format: cell-based, Zika virus; settings: 10 µM compound, MOI 0.1, 40 h, TCID50, ± SEM, three independent trials; for activity at 10 µM: Zika virus, Vero, read-out: ZIKV SPH Relative Titer in Vero Cells
Vero cells = test: Cell viability (CellTiter-Glo) of Vero cells; format: cell-based
[3] = 10 µM compound, 96 h, CellTiter-Glo, ± SEM, three independent trials
[4] = 10 µM compound, 40 h, CellTiter-Glo, ± SEM, three independent trials

Row | Molecule | C6/36 Viability (C6/36 cells; [3]) | ZIKV SPH Relative Titer in C6/36 Cells (ZIKV SPH [1]) | ZIKV SPH Relative Titer in Vero Cells (ZIKV SPH [2]) | Vero Viability (Vero cells; [4]) | Vero Viability (Vero cells; 10 µM) | C6/36 Viability (C6/36 cells; 10 µM) | activity at 10 µM (ZIKV SPH [1]) | activity at 10 µM (ZIKV SPH [2])
1 | COC(=O)C1=C(C)NC(C)=C([N+](=O)[O-])C1c1ccccc1C(F)(F)F (racemic) [(±)Bay K8644] | 53 ± 11.1% of untreated control | 39.4 ± 10.7% of untreated control | 34.9 ± 15.2% of untreated control | 94.0 ± 3% of untreated control | – | – | – | –
2 | Nc1ncnc2c1nc(Sc1ccc(Cl)cc1)n2[C@@H]1O[C@@H]2COP(=O)([O-])O[C@H]2[C@H]1O.[Na+] [8-CPT-cAMP·Na] | 75 ± 3.7% of untreated control | 60.1 ± 18.3% of untreated control | 107.8 ± 65.3% of untreated control | 92.7 ± 0.7% of untreated control | – | – | – | –
3 | Cl.O=C(NCc1ccncc1)C12CC3C[C@H](C1)CC(c1ccc(Cl)cc1)(C3)C2 [ABC294640·HCl] | 32 ± 3.5% of untreated control | 26.0 ± 10.8% of untreated control | 51.7 ± 29.2% of untreated control | – | 87.7 ± 6.8% of untreated control | – | – | –
4 | N#CC(C#N)=C(N)/C(C#N)=C/c1ccc(O)cc1 [AG112] | 80 ± 5.8% of untreated control | 85.5 ± 21.3% of untreated control | 77.7 ± 38.2% of untreated control | 96.7 ± 3.7% of untreated control | – | – | – | –
5 | NC(=O)c1ncn([C@@H]2O[C@H](CO)[C@@H](O)[C@H]2O)c1N [AICAR] | 125 ± 16.4% of untreated control | 252.0 ± 115% of untreated control | 112.3 ± 32.3% of untreated control | 90.0 ± 11.1% of untreated control | – | – | – | –
6 | CCN(CC)CCCCN1c2ccccc2Oc2ccc(Cl)cc21.Cl [Akt Inhibitor X·HCl] | 7 ± 1.9% of untreated control | 0.0 ± 0% of untreated control | 3.5 ± 3.3% of untreated control | – | 32.3 ± 14.2% of untreated control | – | – | –
7 | COc1ccc(C[C@H]2NC[C@H](O)[C@H]2OC(C)=O)cc1 [Anisomycin] | 7 ± 0.9% of untreated control | 0.0 ± 0% of untreated control | 0.0 ± 0% of untreated control | 12.7 ± 4.3% of untreated control | – | – | – | –
8 | CCCCCCCCCCCCCCC[C@@H](O)[C@H](CO)NC(C)=O [C2-dihydroceramide] | 97 ± 5.8% of untreated control | 262.1 ± 51.7% of untreated control | 36.5 ± 3% of untreated control | – | 101.3 ± 3.7% of untreated control | – | – | –
9 | C=CCNC1=C2C[C@@H](C)C[C@H](OC)[C@H](O)[C@@H](C)/C=C(\C)[C@H](OC(N)=O)[C@@H](OC)/C=C\C=C(/C)C(=O)NC(=CC1=O)C2=O [Compound 17-AAG, 17-AAG] | 79 ± 16.4% of untreated control | 18.2 ± 11.2% of untreated control | 36.4 ± 20.8% of untreated control | – | – | – | – | –
10 | CNc1ccc2oc(C[C@H]3O[C@@]4(CC[C@H]3C)O[C@H]([C@H](C)C(=O)c3ccc[nH]3)[C@H](C)C[C@H]4C)nc2c1C(=O)O [Compound A23187, A23187] | 1 ± 0% of untreated control | 0.0 ± 0% of untreated control | 0.5 ± 0.5% of untreated control | 17.0 ± 6.7% of untreated control | – | – | – | –
11 | O[C@@H](CS)[C@@H](O)CS [DTT] | 79 ± 4.4% of untreated control | 145.7 ± 16.6% of untreated control | 60.2 ± 20.1% of untreated control | 93.0 ± 1.5% of untreated control | – | – | – | –
12 | C[C@H](CCC(=O)[O-])[C@H]1CC[C@H]2[C@@H]3CC[C@@H]4C[C@H](O)CC[C@]4(C)[C@H]3C[C@H](O)[C@]12C.[Na+] [Deoxycholate·Na] | 83 ± 1% of untreated control | 90.6 ± 12.5% of untreated control | 76.6 ± 16.6% of untreated control | – | 95.3 ± 2.6% of untreated control | – | – | –
13 | CCCC(=O)Nc1ncnc2c1ncn2[C@@H]1O[C@@H]2COP(=O)([O-])O[C@H]2[C@H]1OC(=O)CCC.[Na+] [Dibutyryl cAMP·Na] | 117 ± 10.7% of untreated control | 142.6 ± 63.9% of untreated control | 60.6 ± 36.7% of untreated control | – | 98.3 ± 4.4% of untreated control | – | – | –
14 | COc1cc(CNC(=O)CCCCCCC(C)C)ccc1O [Dihydrocapsaicin] | – | – | – | – | 92.3 ± 3.8% of untreated control | 61 ± 2.2% of untreated control | 64.1 ± 16% | 28.7 ± 10.5%
15 | CCCCCC[C@@H]([C@@H](C)O)n1cnc2c(N)ncnc21.Cl [EHNA·HCl] | 55 ± 4.2% of untreated control | 36.4 ± 9.1% of untreated control | 81.0 ± 7.6% of untreated control | – | 92.3 ± 2% of untreated control | – | – | –
16 | COc1cc([C@@H]2c3cc4c(cc3[C@@H](O[C@@H]3O[C@@H]5CO[C@@H](C)O[C@H]5[C@H](O)[C@H]3O)[C@H]3COC(=O)[C@H]23)OCO4)cc(OC)c1O [Etoposide] | 119 ± 12.5% of untreated control | – | – | – | 84.0 ± 3.6% of untreated control | – | 737 ± 89.3% | 134 ± 34.3%
17 | COc1ccc(C2CNC(=O)C2)cc1OC1CCCC1 (centres unmarked) [Rolipram] | – | – | – | – | 91.0 ± 3.2% of untreated control | 127 ± 12.1% of untreated control | 215 ± 74.8% | –

Row | Molecule | C6/36 Viability (C6/36 cells; [3]) | ZIKV SPH Relative Titer in C6/36 Cells (ZIKV SPH [1]) | ZIKV SPH Relative Titer in Vero Cells (ZIKV SPH [2]) | Vero Viability (Vero cells; [4]) | Vero Viability (Vero cells; 10 µM) | C6/36 Viability (C6/36 cells; 10 µM) | activity at 10 µM (ZIKV SPH [1]) | activity at 10 µM (ZIKV SPH [2])
18 | C=C(C)[C@H]1Cc2c(ccc3c2O[C@@H]2COc4cc(OC)c(OC)cc4[C@@H]2C3=O)O1 [Rotenone] | 17 ± 5.8% of untreated control | – | – | 61.3 ± 7.7% of untreated control | – | – | 0.1 ± 0.1% | –
19 | CC(=O)c1c(O)c(C)c(O)c(Cc2c(O)c3c(c(C(=O)/C=C/c4ccccc4)c2O)OC(C)(C)C=C3)c1O [Rottlerin] | 40 ± 8.4% of untreated control | – | – | 80.7 ± 8.5% of untreated control | – | – | 30.3 ± 16.9% | –
20 | Oc1ccc(-c2nc(-c3ccncc3)c(-c3ccc(F)cc3)[nH]2)cc1 [SB202190] | – | – | – | – | 74.3 ± 5.2% of untreated control | 44 ± 7.9% of untreated control | 25.9 ± 7.4% | –
21 | Cn1cc(C2=C(c3ccc(Cl)cc3Cl)C(=O)NC2=O)c2ccccc21 [SB-216763] | 63 ± 3.6% of untreated control | – | – | – | 80.0 ± 9% of untreated control | – | 54 ± 21.7% | –
22 | Oc1c2ccccc2c2c3c(cccc13)N=N2 [SP600125] | – | – | – | – | 66.0 ± 2.1% of untreated control | 132 ± 9% of untreated control | 50.3 ± 19.8% | –
23 | CCN(CC)CCNC(=O)c1c(C)[nH]c(/C=C2\C(=O)Nc3ccc(Cl)cc32)c1C [SU11652] | – | – | – | – | 1.0 ± 0% of untreated control | 1 ± 0% of untreated control | 0% | –
24 | CCCC(CCC)C(=O)O [Sodium Valproate] | 111 ± 6.2% of untreated control | – | – | – | 92.7 ± 1.2% of untreated control | – | 111 ± 20.7% | –
25 | NCCCCNCCCN [Spermidine] | – | – | – | – | 78.0 ± 17% of untreated control | 70 ± 3% of untreated control | 90.2 ± 57.4% | –
26 | CN[C@@H]1C[C@H]2O[C@@](C)([C@@H]1OC)n1c3ccccc3c3c4c(c5c6ccccc6n2c5c31)C(=O)NC4 [Staurosporine] | 16 ± 5.3% of untreated control | – | – | 14.0 ± 1.5% of untreated control | – | – | 0% | –
27 | CC/C(=C(\c1ccccc1)c1ccc(OCCN(C)C)cc1)c1ccccc1 [Tamoxifen citrate] | 32 ± 11.9% of untreated control | – | – | – | 60.7 ± 18.4% of untreated control | – | 8.2 ± 7.3% | –
28 | Cn1nnc2c(C(N)=O)ncn2c1=O [Temozolomide] | – | – | – | – | 104.7 ± 1.9% of untreated control | 113 ± 9.2% of untreated control | 219 ± 49.8% | –
29 | C/C=C(/C)C(=O)O[C@H]1C(C)=C2[C@H]([C@@H]1OC(=O)CCCCCCC)[C@@](C)(OC(C)=O)C[C@H](OC(=O)CCC)[C@@]1(O)[C@H]2OC(=O)[C@@]1(C)O [Thapsigargin] | – | – | – | – | 38.0 ± 10.5% of untreated control | 23 ± 3.9% of untreated control | 0% | –
30 | C[C@H]1CC[C@@]2(OC1)O[C@H]1C[C@H]3[C@@H]4CC[C@@H]5C[C@@H](O[C@@H]6O[C@H](CO)[C@H](O)[C@H](O)[C@H]6O[C@@H]6O[C@H](CO)[C@@H](O)[C@H](O)[C@H]6O)CC[C@]5(C)[C@H]4CC[C@]3(C)[C@H]1[C@@H]2C [Timosaponin A-III] | 67 ± 3.6% of untreated control | – | – | – | 38.7 ± 11.9% of untreated control | – | 13 ± 5.2% | –
31 | Cc1ccc(S(=O)(=O)NC(=O)NN2CCCCCC2)cc1 [Tolazamide] | 113 ± 7.3% of untreated control | – | – | – | 99.0 ± 1.5% of untreated control | – | 120 ± 33.7% | –
32 | COc1ccc(CCN(C)CCCC(C#N)(c2ccc(OC)c(OC)c2)C(C)C)cc1OC (centres unmarked) [Verapamil·HCl] | 71 ± 2.9% of untreated control | – | – | 87.7 ± 0.9% of untreated control | – | – | 89 ± 40.8% | –
33 | Penitrem A | – | 29.8 ± 6.4% of untreated control | 34.9 ± 10.4% of untreated control | – | – | – | – | –
